According to PubChem BioAssay AID2060496 (Molecular Pharmacology Branch, DTP, NCI, 2025):
pIC50: −log10 of the molar value. Values joined by “and” are separate entries in the source; they are usually repeats but may differ in a detail not shown here. Identical values can stand only once. Values belong to the molecule of their own block, whether it stands above or below them.

Test system: 276233-004-R-J1-PDC complex spheroid viability
Experiment: Anticancer human tumor 276233-004-R-J1-PDC patient-derived colon adenocarcinoma cell line growth inhibition [GQUAD]
Conditions: for viability, T/C: stronger effect = lower value
Text: DNA G-quadruplex Stabilizer Agents in Combinations in Complex Spheroids
A high-throughput screen of multi-cell type tumor spheroids was designed to identify active combinations of DNA G-quadruplex stabilizer agents and targeted small molecules. Complex spheroids include a stromal component modeled by human endothelial cells (HUVEC) and fibroblasts modeled by human mesenchymal stem cells (MSCs). The concentration ranges selected for each drug and investigational agent were based upon clinically achievable concentrations if the clinical Cmax of the agent was known.
Compounds. The drugs and investigational agents: pidnarulex (CX-5461; NSC782164), APTO-253 (NSC789042), BRACO-19 (NSC847499), peposertib (NSC802822), ceralasertib (NSC780249), elimusertib (NSC800525), camonsertib (NSC841442), AZD-1390 (NSC803789), olaparib (NSC753686), talazoparib (NSC767125), ART-558 (NSC835418), sotorasib (NSC818433), MRTX-1133 (NSC836407), SN-38 (NSC673596), topotecan (NSC609699), etoposide (NSC141540), doxorubicin (NSC123127), gemcitabine (NSC613327), 5-fluorouracil (NSC19893), paclitaxel (NSC125973), vemurafenib (NSC761431), panobinostat (NSC761190), R-306465 (JNJ-16241199; NSC773264), adavosertib (NSC754352), TP-3654 (NSC805149), carboplatin (NSC241240), KSQ-4279 (NSC840948), and staurosporine (NSC755774) were obtained from the National Cancer Institute (NCI) Developmental Therapeutics Program Chemical Repository (34). The FDA-approved anticancer drug set is available from the NCI Developmental Therapeutics Program. […] The stock solutions were prepared in dimethyl sulfoxide (DMSO, Sigma-Aldrich, St. Louis, MO, cat. D2650) at 800-fold the tested concentration and stored at -70 degrees C prior to their use. All drugs and investigational agents were tested over a range starting from a high concentration at or near the clinical Cmax and decreasing in half-log increments. If the clinical Cmax for an agent had not been determined, the highest concentration tested was 10 microM.
2.3 Cell Culture. All cells were maintained in an incubator at 37 degrees C and 5% CO2 with 95% humidity. The PDC lines were cultured according to standard operating procedures established by the NCI PDMR. All PDCs were thawed and cultured in Matrigel-coated flasks prepared with a working solution of 1X Ham's F-12 nutrient mix, without supplementation (Invitrogen, cat. 11765054), 100 U/mL penicillin-streptomycin (Invitrogen, cat. 15140122), and 2.5% Matrigel (Corning Inc., cat. 354248) for the first three passages. The 857933-349-R-J2-PDC line was cultured in 6C/Colon 1B media, which includes advanced DMEM/F-12 (Thermo Fisher Scientific, cat. 12634028), 10 mM HEPES (Thermo Fisher Scientific, cat. 15630080), 1X GlutaMAX supplement (Thermo Fisher Scientific, cat. 35050061), 0.1 mg/mL primocin (InvivoGen, cat. ant-pm-2), 10% defined fetal bovine serum, heat inactivated (HyClone Laboratories Inc., cat. SH30070.03HI), 50% L-WRN conditioned media (ATCC, cat. CRL-3276), 1.25 mM N-Acetyl-L-cysteine (Sigma-Aldrich, cat. A9165), 10 mM nicotinamide (Sigma-Aldrich, cat. N0636), 1X B-27 supplement (Thermo Fisher Scientific, cat. 17504044), 1X N-2 supplement (Thermo Fisher Scientific, cat. 17502048), 10 microM Y-27632 dihydrochloride (Tocris Bioscience, cat. 1254), and 50 ng/mL human EGF recombinant protein (Thermo Fisher Scientific, cat. PHG0311). The 485176-168-R4-J1-PDC line was cultured in Panc media, which includes all 6C/Colon 1B media components plus 100 ng/mL human FGF-10 (Thermo Fisher Scientific, cat. 100-26), 500 nM SB-431542 (Selleckchem, cat. S1067), and gastrin (Tocris, cat. 3006).
[…]

[1] = curve of first compound, second compound 0.0316 µM
[2] = curve of first compound, second compound 0.1 µM
[3] = curve of first compound, second compound 0.316 µM
[4] = curve of first compound, second compound 1 µM
[5] = curve of first compound, second compound 3.16 µM
[6] = curve of first compound, second compound 10 µM
[7] = second compound 0.0316 µM, first compound 0.0316 µM
[8] = second compound 0.0316 µM, first compound 0.1 µM
[9] = second compound 0.0316 µM, first compound 0.316 µM
[10] = second compound 0.0316 µM, first compound 1 µM
[11] = second compound 0.0316 µM, first compound 3.16 µM
[12] = second compound 0.0316 µM, first compound 10 µM
[13] = second compound 0.1 µM, first compound 0.0316 µM
[14] = second compound 0.1 µM, first compound 0.1 µM
[15] = second compound 0.1 µM, first compound 0.316 µM
[16] = second compound 0.1 µM, first compound 1 µM
[17] = second compound 0.1 µM, first compound 3.16 µM
[18] = second compound 0.1 µM, first compound 10 µM
[19] = second compound 0.316 µM, first compound 0.0316 µM
[20] = second compound 0.316 µM, first compound 0.1 µM
[21] = second compound 0.316 µM, first compound 0.316 µM
[22] = second compound 0.316 µM, first compound 1 µM
[23] = second compound 0.316 µM, first compound 3.16 µM
[24] = second compound 0.316 µM, first compound 10 µM
[25] = second compound 1 µM, first compound 0.0316 µM
[26] = second compound 1 µM, first compound 0.1 µM
[27] = second compound 1 µM, first compound 0.316 µM
[28] = second compound 1 µM, first compound 1 µM
[29] = second compound 1 µM, first compound 3.16 µM
[30] = second compound 1 µM, first compound 10 µM
[31] = second compound 3.16 µM, first compound 0.0316 µM
[32] = second compound 3.16 µM, first compound 0.1 µM
[33] = second compound 3.16 µM, first compound 0.316 µM
[34] = second compound 3.16 µM, first compound 1 µM
[35] = second compound 3.16 µM, first compound 3.16 µM
[36] = second compound 3.16 µM, first compound 10 µM
[37] = second compound 10 µM, first compound 0.0316 µM
[38] = second compound 10 µM, first compound 0.1 µM
[39] = second compound 10 µM, first compound 0.316 µM
[40] = second compound 10 µM, first compound 1 µM
[41] = second compound 10 µM, first compound 3.16 µM
[42] = second compound 10 µM, first compound 10 µM
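Also: spheroids exposed to drugs for seven days.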
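For viability, T/C in this document: 100% = DMSO vehicle control viability.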

Structure (SMILES): Nc1ccn(C2OC(CO)C(O)C2(F)F)c(=O)n1 (stereo not given) + Cc1[nH]c2ccc(F)cc2c1-c1nc2c3cccnc3c3ncccc3c2[nH]1
pIC50 [1]: < 5.00
pIC50 [2]: < 5.00
pIC50 [3]: < 5.00
pIC50 [4]: < 5.00
pIC50 [5]: > 7.50
pIC50 [6]: > 7.50
viability, T/C [7]: 102%
viability, T/C [8]: 74.9%
viability, T/C [9]: 74.1%
viability, T/C [10]: 71%
viability, T/C [11]: 66.2%
viability, T/C [12]: 78.4%
viability, T/C [13]: 72.1%
viability, T/C [14]: 88.4%
viability, T/C [15]: 61.7%
viability, T/C [16]: 76.3%
viability, T/C [17]: 82.9%
viability, T/C [18]: 67.8%
viability, T/C [19]: 67%
viability, T/C [20]: 74.8%
viability, T/C [21]: 79.4%
viability, T/C [22]: 73%
viability, T/C [23]: 83.2%
viability, T/C [24]: 63.6%
viability, T/C [25]: 65%
viability, T/C [26]: 58.5%
viability, T/C [27]: 68.8%
viability, T/C [28]: 76.7%
viability, T/C [29]: 65.8%
viability, T/C [30]: 64.8%
viability, T/C [31]: 53.8%
viability, T/C [32]: 42%
viability, T/C [33]: 50.6%
viability, T/C [34]: 50.1%
viability, T/C [35]: 51.9%
viability, T/C [36]: 59.3%
viability, T/C [37]: 39.7%
viability, T/C [38]: 43%
viability, T/C [39]: 43.4%
viability, T/C [40]: 40.2%
viability, T/C [41]: 42.2%
viability, T/C [42]: 40%

Structure (SMILES): CC1COCCN1c1cc(C2(O)CC3CCC(C2)O3)c2cnn(-c3ccn[nH]3)c2n1 (stereo not given)
viability, T/C (compound 0.0316 µM): 98% and 89.3% and 74.2%
viability, T/C (compound 0.1 µM): 74.3% and 88.6% and 73.8%
viability, T/C (compound 0.316 µM): 65.7% and 71% and 68.6%
viability, T/C (compound 1 µM): 59.9% and 61.2% and 68.8%
viability, T/C (compound 3.16 µM): 56.3% and 54.3% and 63.9%
viability, T/C (compound 10 µM): 41.6% and 47.4% and 45.6%
pIC50 (curve of compound): 5.41 and 5.16 and 5.12

Structure (SMILES): CC1COCCN1c1cc(-c2ccnn2C)c2ccnc(-c3ccn[nH]3)c2n1 (stereo not given) + Cc1[nH]c2ccc(F)cc2c1-c1nc2c3cccnc3c3ncccc3c2[nH]1
pIC50 [1]: < 5.00
pIC50 [2]: < 5.00
pIC50 [3]: < 5.00
pIC50 [4]: 5.14
pIC50 [5]: > 7.50
pIC50 [6]: > 7.50
viability, T/C [7]: 84.6%
viability, T/C [8]: 69.4%
viability, T/C [9]: 87%
viability, T/C [10]: 70.5%
viability, T/C [11]: 57.9%
viability, T/C [12]: 56.3%
viability, T/C [13]: 76.1%
viability, T/C [14]: 68%
viability, T/C [15]: 68.9%
viability, T/C [16]: 60%
viability, T/C [17]: 68.1%
viability, T/C [18]: 55.3%
viability, T/C [19]: 90.5%
viability, T/C [20]: 87.7%
viability, T/C [21]: 71.2%
viability, T/C [22]: 60.3%
viability, T/C [23]: 57%
viability, T/C [24]: 59.7%
viability, T/C [25]: 89.3%
viability, T/C [26]: 86.6%
viability, T/C [27]: 65.4%
viability, T/C [28]: 60.8%
viability, T/C [29]: 57.6%
viability, T/C [30]: 46.2%
viability, T/C [31]: 48.1%
viability, T/C [32]: 48.5%
viability, T/C [33]: 53.9%
viability, T/C [34]: 45.1%
viability, T/C [35]: 44.1%
viability, T/C [36]: 32.5%
viability, T/C [37]: 42%
viability, T/C [38]: 49.6%
viability, T/C [39]: 40.8%
viability, T/C [40]: 40.2%
viability, T/C [41]: 37.8%
viability, T/C [42]: 32.4%

The next lines start with results.

pIC50 (curve of compound): < 5.00
Structure (SMILES): O=c1[nH]cc(F)c(=O)[nH]1
viability, T/C (compound 0.0316 µM): 98.2% and 108% and 102%
viability, T/C (compound 0.1 µM): 71.6% and 81.3% and 94.7%
viability, T/C (compound 0.316 µM): 89.2% and 90.9% and 103%
viability, T/C (compound 1 µM): 88.4% and 88.3% and 106%
viability, T/C (compound 3.16 µM): 84.1% and 90.3% and 83.7%
viability, T/C (compound 10 µM): 101% and 97.9% and 113%

pIC50 (curve of compound): < 6.50
Structure (SMILES): CC[C@@]1(O)C(=O)OCc2c1cc1n(c2=O)Cc2cc3c(CN(C)C)c(O)ccc3nc2-1
viability, T/C (compound 0.000999 µM): 102% and 92.8% and 107%
viability, T/C (compound 0.00316 µM): 95.6% and 106% and 94.4%
viability, T/C (compound 0.00999 µM): 89.3% and 96.7% and 96.9%
viability, T/C (compound 0.0316 µM): 97.6% and 112% and 79.8%
viability, T/C (compound 0.0999 µM): 97.6% and 102% and 99.8%
viability, T/C (compound 0.316 µM): 90.9% and 107% and 98.6%
